This passage reports EC50 results from patent publication US20100222269A1, “IMPROVED DERIVATIVES OF AMYLIN” (priority 2007, published 2010).

pEC50: −log10 of the molar value. Starred links: 1 amine or outer side, 2 acyl side, 3 side chain; linkers in the order of their positions; H or OH if unused. Positions of bridges follow the written chain, without caps; N, C: chain ends. Residues, ends and D or L forms follow the SMILES beside them. Groups on a side chain read outwards from the residue. *: point of attachment. C20 diacid = O=C(O)CCCCCCCCCCCCCCCCCCC(=O)*; C18 diacid = O=C(O)CCCCCCCCCCCCCCCCC(=O)*; γGlu = O=C(O)[C@H](CCC(=O)[*:2])N[*:1]; AEEA = NCCOCCOCC(=O)O

This assay deals with T1, Amylin 3(a) receptor (human calcitonin receptor (CTa) with RAMP-3) (Homo sapiens, UniProt O60896+P30988).
T1 construct: expressed in transfected cells; host or cells: BHK570 (baby hamster kidney) cells, stably transfected, with CRE-luciferase reporter
T1 sequence (O60896 24-148): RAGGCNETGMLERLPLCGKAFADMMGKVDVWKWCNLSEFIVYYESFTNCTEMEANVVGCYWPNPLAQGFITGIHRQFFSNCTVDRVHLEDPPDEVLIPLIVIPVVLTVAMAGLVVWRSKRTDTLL
T1 sequence (P30988 25-474): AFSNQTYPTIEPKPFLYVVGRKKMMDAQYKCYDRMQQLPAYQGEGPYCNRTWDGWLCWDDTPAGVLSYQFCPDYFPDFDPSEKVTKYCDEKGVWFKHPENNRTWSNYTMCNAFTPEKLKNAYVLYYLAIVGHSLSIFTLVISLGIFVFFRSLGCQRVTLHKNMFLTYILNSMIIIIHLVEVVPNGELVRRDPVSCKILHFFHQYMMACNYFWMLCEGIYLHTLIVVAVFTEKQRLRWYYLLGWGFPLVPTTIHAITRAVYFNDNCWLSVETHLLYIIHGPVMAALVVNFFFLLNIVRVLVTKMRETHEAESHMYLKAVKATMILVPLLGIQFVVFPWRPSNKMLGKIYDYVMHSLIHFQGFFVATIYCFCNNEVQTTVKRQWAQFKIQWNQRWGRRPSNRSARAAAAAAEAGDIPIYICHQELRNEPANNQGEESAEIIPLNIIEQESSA
The assay can be described thus: Amylin luciferase assay (CRE-luciferase reporter in BHK Amylin 3(a)//CRE-luc cells). Format: cell-based. Conditions: BHK570 cells with human calcitonin receptor (CTa), RAMP-3 and CRE-luciferase reporter; 4 hours incubation; read-out: Potency luciferase assay. From the text: It has previously been published (Poyner D R et al 2002, Pharmacological Reviews 54(2) 233-246) that activation of Amylin receptors (coexpression of Calcitonin receptor and receptor activity modifying peptides RAMPs) by Amylin leads to an increase in the intracellular concentration of cAMP. Consequently, transcription is activated at promotors containing multiple copies of the cAMP response element (CRE). It is thus possible to measure Amylin activity by use of a CRE luciferase reporter gene introduced into BHK cells also expressing an Amylin receptor.
2. Construction of an Amylin 3(a)/CRE-luc Cell Line
A BHK570 cell line stably transfected with the human calcitonin receptor (CTa) and a CRE-responsive luciferase reportergene. The cell line was further transfected with RAMP-3, using standard methods. This turns the Calcitonin receptor into an Amylin 3(a) receptor. Methotrexate, Neomycin, and Hygromycin are selection markers for luciferase, the Calcitonin receptor, and RAMP-3, respectively.
3. Amylin Luciferase Assay
To perform activity assays, BHK Amylin 3(a)//CRE-luc cells were seeded in white 96 well culture plates at a density of about 20.000 cells/well. The cells were in 100 μl growth medium (DMEM with 10% FBS, 1% Pen/Strep, 1 mM Na-pyruvate, 250 nM Methotrexate, 500 μg/ml Neomycin, and 400 μg/ml Hygromycin). After incubation overnight at 37° C. and 5% CO2, the growth medium was replaced by 50 μl/well assay medium (DMEM (without phenol red), Glumamax™, 10% FBS, and 10 mM Hepes, pH 7,4). Further, 50 μl/well of standard or sample in assay buffer were added. After 4 hours incubation at 37° C. and 5% CO2, the assay medium with standard or sample were removed and replaced by 100 μl/well PBS. Further, 100 μl/well LucLite™ was added. The plates were sealed and incubated at room temperature for 30 minutes. Finally, luminescence was measured on a TopCounter (Packard) in SPC (single photon counting) mode.
For the molecule `CC[C@H](C)[C@H](NC(=O)[C@@H]1CCCN1C(=O)CNC(=O)[C@H](Cc1ccccc1)NC(=O)[C@H](CC(N)=O)NC(=O)[C@H](CC(N)=O)NC(=O)[C@H](CO)NC(=O)[C@H](CO)NC(=O)[C@H](Cc1c[nH]cn1)NC(=O)[C@@H](NC(=O)[C@H](CC(C)C)NC(=O)[C@H](Cc1ccccc1)NC(=O)[C@H](CC(N)=O)NC(=O)[C@H](C)NC(=O)[C@H](CC(C)C)NC(=O)[C@H](CCCNC(=N)N)NC(=O)[C@H](CCC(N)=O)NC(=O)[C@@H](NC(=O)[C@H](C)NC(=O)[C@@H]1CSSC[C@H](NC(=O)[C@@H](N)CCCCN)C(=O)N[C@@H](CCCCNC(=O)CCCCCCCCCCCCCCCCCCC(=O)O)C(=O)N[C@@H]([C@@H](C)O)C(=O)N[C@@H](C)C(=O)N[C@@H]([C@@H](C)O)C(=O)N1)[C@@H](C)O)C(C)C)C(=O)N[C@@H](CC(C)C)C(=O)N1CCC[C@H]1C(=O)N1CCC[C@H]1C(=O)N[C@H](C(=O)N[C@@H](CC(N)=O)C(=O)N[C@H](C(=O)NCC(=O)N[C@@H](CO)C(=O)N[C@@H](CC(N)=O)C(=O)N[C@H](C(=O)N[C@@H](Cc1ccc(O)cc1)C(N)=O)[C@@H](C)O)C(C)C)[C@@H](C)O` [Example 14, N-epsilon3-(19-carboxynonadecanoyl)-[Lys3]-pramlintide (1-37)] (H-KCK(C20 diacid)TATCATQRLANFLVHSSNNFGPILPPTNVGSNTY-NH2; disulfide 2-7; N-terminus assumed), the pEC50 was 10.30.

On to `CC(C)C[C@H](NC(=O)[C@H](CC(N)=O)NC(=O)[C@H](CC(N)=O)NC(=O)[C@H](CO)NC(=O)[C@H](CO)NC(=O)[C@H](CCCNC(=N)N)NC(=O)[C@@H](NC(=O)[C@H](CC(C)C)NC(=O)[C@H](Cc1ccccc1)NC(=O)[C@H](CC(N)=O)NC(=O)[C@H](C)NC(=O)[C@H](CC(C)C)NC(=O)[C@H](CCCNC(=N)N)NC(=O)[C@H](CCC(N)=O)NC(=O)[C@@H](NC(=O)[C@H](C)NC(=O)[C@@H]1CSSC[C@H](NC(=O)CC[C@H](NC(=O)CCCCCCCCCCCCCCCCC(=O)O)C(=O)O)C(=O)N[C@@H](CC(N)=O)C(=O)N[C@@H]([C@@H](C)O)C(=O)N[C@@H](C)C(=O)N[C@@H]([C@@H](C)O)C(=O)N1)[C@@H](C)O)C(C)C)C(=O)NCC(=O)N1CCC[C@H]1C(=O)N[C@H](C(=O)N[C@@H](CC(C)C)C(=O)N1CCC[C@H]1C(=O)N1CCC[C@H]1C(=O)N[C@H](C(=O)N[C@@H](CC(N)=O)C(=O)N[C@H](C(=O)NCC(=O)N[C@@H](CO)C(=O)N[C@@H](CC(N)=O)C(=O)N[C@H](C(=O)N[C@@H](Cc1ccc(O)cc1)C(N)=O)[C@@H](C)O)C(C)C)[C@@H](C)O)C(C)C` [Example 16, N-alpha-[(S)-4-carboxy-4-(17-carboxyheptadecanoylamino)butyryl]-[Arg18,Leu23,Val26]-pramlintide (2-37)], for which the pEC50 was 10.52.

Take `CC[C@H](C)[C@H](NC(=O)[C@@H]1CCCN1C(=O)CNC(=O)[C@H](Cc1ccccc1)NC(=O)[C@H](CC(N)=O)NC(=O)[C@H](CC(N)=O)NC(=O)[C@H](CO)NC(=O)[C@H](CO)NC(=O)[C@H](CCCNC(=N)N)NC(=O)[C@H](C)NC(=O)[C@H](CC(C)C)NC(=O)[C@H](Cc1ccccc1)NC(=O)[C@H](CC(N)=O)NC(=O)[C@H](C)NC(=O)[C@H](CC(C)C)NC(=O)[C@H](CCCNC(=N)N)NC(=O)[C@H](CCC(N)=O)NC(=O)[C@@H](NC(=O)[C@H](C)NC(=O)[C@@H]1CSSC[C@H](NC(=O)[C@@H](N)CCCCNC(=O)CC[C@H](NC(=O)CCCCCCCCCCCCCCCCC(=O)O)C(=O)O)C(=O)NCC(=O)N[C@@H]([C@@H](C)O)C(=O)N[C@@H](C)C(=O)N[C@@H]([C@@H](C)O)C(=O)N1)[C@@H](C)O)C(=O)N[C@@H](CC(C)C)C(=O)N[C@@H](CO)C(=O)N1CCC[C@H]1C(=O)N[C@H](C(=O)N[C@@H](CC(N)=O)C(=O)N[C@H](C(=O)NCC(=O)N[C@@H](CO)C(=O)N[C@@H](CC(N)=O)C(=O)N[C@H](C(=O)N[C@@H](Cc1ccc(O)cc1)C(N)=O)[C@@H](C)O)C(C)C)[C@@H](C)O` [Example 23, N-epsilon1-[(S)-4-carboxy-4-(17-carboxyheptadecanoylamino)butyryl]-[Gly3,Ala17,Arg18,Ser28]-pramlintide (1-37)] (H-K([γGlu-C18 diacid])CGTATCATQRLANFLARSSNNFGPILSPTNVGSNTY-NH2; disulfide 2-7): the pEC50 is 10.15.

With `CC[C@H](C)[C@H](NC(=O)[C@@H]1CCCN1C(=O)CNC(=O)[C@H](Cc1ccccc1)NC(=O)[C@H](CC(N)=O)NC(=O)[C@H](CC(N)=O)NC(=O)[C@H](CO)NC(=O)[C@H](CO)NC(=O)[C@H](Cc1c[nH]cn1)NC(=O)[C@@H](NC(=O)[C@H](CC(C)C)NC(=O)[C@H](Cc1ccccc1)NC(=O)[C@H](CC(N)=O)NC(=O)[C@H](C)NC(=O)[C@H](CC(C)C)NC(=O)[C@H](CCCNC(=N)N)NC(=O)[C@H](CCC(N)=O)NC(=O)[C@@H](NC(=O)[C@H](C)NC(=O)[C@@H]1CSSC[C@H](NC(=O)[C@H](CCC(=O)O)NC(=O)[C@H](CCCNC(=N)N)NC(=O)[C@H](CCC(=O)O)NC(=O)[C@H](CCC(=O)O)NC(=O)CCCCCCCCCCCCCCCCCCC(=O)O)C(=O)N[C@@H](CC(N)=O)C(=O)N[C@@H]([C@@H](C)O)C(=O)N[C@@H](C)C(=O)N[C@@H]([C@@H](C)O)C(=O)N1)[C@@H](C)O)C(C)C)C(=O)N[C@@H](CC(C)C)C(=O)N1CCC[C@H]1C(=O)N1CCC[C@H]1C(=O)N[C@H](C(=O)N[C@@H](CC(N)=O)C(=O)N[C@H](C(=O)NCC(=O)N[C@@H](CO)C(=O)N[C@@H](CC(N)=O)C(=O)N[C@H](C(=O)N[C@@H](Cc1ccc(O)cc1)C(N)=O)[C@@H](C)O)C(C)C)[C@@H](C)O` [Example 25, N-alpha-(19-carboxynonadecanoyl)-Glu-Glu-Arg-[Glu1]-pramlintide (1-37)] ({C20 diacid}-EERECNTATCATQRLANFLVHSSNNFGPILPPTNVGSNTY-NH2; disulfide 5-10; C-terminus assumed), the pEC50 was 10.10.

As for `CC[C@H](C)[C@H](NC(=O)[C@H](CCCCNC(=O)COCCOCCNC(=O)COCCOCCNC(=O)CC[C@H](NC(=O)CC[C@H](NC(=O)CC[C@H](NC(=O)CC[C@H](NC(=O)CCCCCCCCCCCCCCCCC(=O)O)C(=O)O)C(=O)O)C(=O)O)C(=O)O)NC(=O)CNC(=O)[C@H](Cc1ccccc1)NC(=O)[C@H](CC(N)=O)NC(=O)[C@H](CC(N)=O)NC(=O)[C@H](CO)NC(=O)[C@H](CO)NC(=O)[C@H](Cc1c[nH]cn1)NC(=O)[C@@H](NC(=O)[C@H](CC(C)C)NC(=O)[C@H](Cc1ccccc1)NC(=O)[C@H](CC(N)=O)NC(=O)[C@H](C)NC(=O)[C@H](CC(C)C)NC(=O)[C@H](CCCNC(=N)N)NC(=O)[C@H](CCC(N)=O)NC(=O)[C@@H](NC(=O)[C@H](C)NC(=O)[C@@H]1CSSC[C@H](NC(=O)[C@@H](N)CCCCN)C(=O)N[C@@H](CC(N)=O)C(=O)N[C@@H]([C@@H](C)O)C(=O)N[C@@H](C)C(=O)N[C@@H]([C@@H](C)O)C(=O)N1)[C@@H](C)O)C(C)C)C(=O)N[C@@H](CC(C)C)C(=O)N1CCC[C@H]1C(=O)N1CCC[C@H]1C(=O)N[C@H](C(=O)N[C@@H](CC(N)=O)C(=O)N[C@H](C(=O)NCC(=O)N[C@@H](CO)C(=O)N[C@@H](CC(N)=O)C(=O)N[C@H](C(=O)N[C@@H](Cc1ccc(O)cc1)C(N)=O)[C@@H](C)O)C(C)C)[C@@H](C)O` [Example 26, N-epsilon25-[2-(2-{2-[2-(2-{2-[(S)-4-carboxy-4-((S)-4-carboxy-4-{(S)-4-carboxy-4-[(S)-4-carboxy-4-(17-carboxyheptadecanoylamino)butyrylamino]butyrylamino}butyrylamino)butyrylamino]ethoxy}ethoxy)acetylamino]ethoxy}ethoxy)acetyl]-[Lys25]-pramlintide (1-37)] (H-KCNTATCATQRLANFLVHSSNNFGK([AEEA-AEEA-γGlu-γGlu-γGlu-γGlu-C18 diacid])ILPPTNVGSNTY-NH2; disulfide 2-7; N-terminus and C-terminus assumed), the pEC50 is 9.52.
